Here are results for two molecules from patent US11123328B2 (UNIVERSITY HEALTH NETWORK, priority 2017, dated 2021).

Molecules are shown by their SMILES. Entries after “also recorded” stand apart in the source; their conditions may differ.

In series [1] the test system is patients without known cardiac disease. In words: Safety of chronic oral dantrolene, 10-year experience: ECG and echocardiogram (Example 5). The text has this:
If more than 1 electrocardiogram and/or echocardiogram were available for any single patient, all were studied (to assess for any abnormality), but only the latest (with the longest therapy duration) was included in the analysis.

Series [2] deals with patients without known cardiac diseases. The note with it: human, in vivo.
The test system is the same in series [3]. In words: Safety of chronic oral dantrolene: ECG, echo, Holter, stress test in patients (Example 4).
For series [4], the system named is Langendorff-perfused rabbit hearts. In words: Calcium alternans by optical mapping in Langendorff-perfused rabbit hearts stressed by VF (Example 1). As to conditions: for CaAR (calcium alternans ratio) / SD of CaAR (surrogate for spatial dyssynchrony): azumolene 20 μM; for SD of CaAR (surrogate for spatial dyssynchrony): n=8. The text has this:
The term “cardiac dyssynchrony” as used herein means improper synchronization of calcium cycling in the heart or a part thereof, including for example temporal dyssynchrony and/or spatial dyssynchrony, optionally due to calcium leak from ryanodine type 2 receptor (RyR2) channels, leading to decreased calcium uptake and/or release in the sarcoplasmic reticulum (SR). RyR2 are found primarily in cardiac muscle and are a major mediator for SR release of calcium ions. Spatio-temporal dyssynchrony of calcium alternans can be measured by calculating a calcium alternans ratio (CaAR) for temporal mechanical dyssynchrony or by measuring the standard deviation (SD) of CaAR as a surrogate for spatial mechanical dyssynchrony. CaAR can be calculated as the amplitude of a Ca peak divided by the amplitude of a following Ca peak in a calcium transient measurement such as in FIG. 5. The smallest amplitude of Ca peak is divided by the largest amplitude of Ca peak. The larger the ratio the more similar the peak sizes. A ratio of 1 indicates no calcium alternans. Ratios of less than 1, optionally 0.8, 0.7 etc are indicative of cardiac dyssynchrony. Similarly mean standard deviations in calcium alternans ratios of greater than 0.05, greater than 0.06 or greater than 0.07 etc are indicative of cardiac dyssynchrony.
Their effect on temporal calcium alternans ratio (CaAR) before and after ventricular fibrillation (VF) (as a surrogate for temporal mechanical dyssynchrony) and standard deviation (SD) of CaAR from the anterior wall of left ventricular, which is used as a surrogate for spatial mechanical dyssynchrony, were assessed. […] Simultaneous optical mapping was performed. Calcium alternans are defined as beat-to-beat variability of 10% or more in calcium transient amplitudes.

In series [5] the test system is ventricular arrhythmia swine model. The note with it: previous work [4]; cited from earlier work.
Series [6] deals with animal hearts. In words: Optical mapping and LVDP in hearts subjected to myopathic insults, azumolene pre-treated or not (Example 3). As to conditions: for calcium alternans ratio map values: scale 0.00 to 0.40. The protocol:
FIGS. 6A and 6B are a schematic and images, respectively, of the experimental protocol of animal hearts, pre-treated or not with azumolene, subjected to myopathic insults.
The effect of azumolene was further investigated. Optical mapping and left ventricular developed pressure (LVDP) were measured at baseline and following inducement of myopathic insults to the hearts (see FIGS. 6A and 6B). […] FIGS. 8A and 8B show the occurrence of spatial dyssynchronic in untreated compared to azumolene-treated hearts.

Setting [7] is: both, human, in vivo, 10.9 years.
Where [8] appears, read: azumolene pretreatment, following myopathic insults, FIG. 9.

In the case of `O=C1CN(/N=C/c2ccc(-c3ccc([N+](=O)[O-])cc3)o2)C(O)=N1` [dantrolene], in series [1] (setting [7]), the “Number of patients with PR >200 ms” value is 1 (5) n (%) and the “Number of patients with QTc >460 ms” value was 1 (5) n (%). Further, the “QTc of the patient with QTc >460 ms” value in series [1] (female, human, in vivo) stood at 465 ms. Moreover, in series [1] (human, in vivo), the “Absolute change in average PR ± SD” value is given as 12 ± 8 (p = 0.14) ms; the “Absolute change in average QRS ± SD” value is on record as 4 ± 3, (p = 0.71) ms; the “Absolute change in average QTc ± SD” value is 12 ± 17, (p = 0.27) ms; the “PR of the patient with PR >200 ms” value is recorded as 222 ms. In series [1] (in vivo), the “QRS or QTc prolongation” value is “did not have QRS or QTc prolongation”; the “conduction and repolarization parameters” value is reported as “within normal limits”; the “dose-related QTc prolongation” value is recorded as “No dose-related QTc prolongation”; the “left ventricular (LV) size and systolic function” value is recorded as “normal”. In addition, in series [1] (in vivo), the rhythm in electrocardiograms result is reported as “sinus rhythm”. The “major cardiac events (serious arrhythmia, sudden death, or myocardial infarction)” value in series [1] (mean 10.9±6 years follow-up) is given as “no major cardiac events”. Besides, in series [2], the “LV size and function” value is given as “normal”; the “arrhythmia in Holter or stress tests” value is recorded as “No major arrhythmia”; the “rest of the depolarization and repolarization parameters” value is “within normal limits”; the “rhythm in ECGs” value is on record as “sinus rhythm”. For the same molecule, in series [2] (po), the JTc is 304 ± 79 ms; the QRS is listed as 98 ± 10 ms; the “QRS or QTc prolongation, arrhythmia, pauses, significant cardiac events” value is reported as “did not have QRS or QTc prolongation, arrhythmia, pauses, or significant cardiac events”; the “effect on LV systolic function” value is on record as “No detrimental effect”. The mean heart rate in series [2] (po) is reported as 67 (±14). Further, the PR in series [3] (chronic oral dantrolene (>3 months)) was found to be 173 ± 19 ms. Besides, the “major cardiac events (life-threatening arrhythmia, sudden death, myocardial infarction)” value in series [3] (during dantrolene therapy, most >5 years) was “No major cardiac events”. Besides, the “heterogeneity in calcium alternans in response to myopathic stress” value in series [4] is “minimizes heterogenity in calcium alternans”. In addition, the “effect on the QT” value in series [5] is listed as “did not affect the QT”.

Regarding `O=C1CN(/N=C/c2ncc(-c3ccc(Br)cc3)o2)C(=O)N1` [azumolene], the “heterogeneity in calcium alternans in response to myopathic stress” value in series [4] is “minimizes heterogenity in calcium alternans”. Besides, the entries for the “CaAR (calcium alternans ratio)” value in series [4] (after 1st VF) and in series [4] (after 2nd VF) were 0.97±0.02 and 0.94±0.02, respectively. In addition, the “SD of CaAR (surrogate for spatial dyssynchrony)” value in series [4] (after 1st VF) was determined as 0.025±0.003; in series [4] (after 2nd VF), 0.039±0.004. In series [4] (azumolene-treated vs untreated hearts after VF, FIG. 2), the “spatial calcium release dyssynchrony (calcium release tracings)” value is “reduced spacial calcium release dyssynchrony; also recorded: spatial calcium release disordering is abrogated”. Besides, the “calcium alternans in ratio maps” value in series [4] (post 1st VF at 6.0 Hz, FIG. 5D vs 5B) is reported as “fewer calcium alternans”. Besides, in series [6] (after myopathic insults, FIG. 7), the “mean calcium alternans index” value was “untreated-hearts increased significantly compared to azumolene-treated hearts”. Moreover, the LVDP result in series [6] (setting [8]) was “significantly improved”. For the same molecule, the dp/dtmax entry in series [6] (setting [8]) is listed as “significantly improved”. The “calcium alternans ratio map values” is recorded as 0.025 to 0.05 in series [6] (azumolene-treated heart at baseline, FIG. 8A) and 0.05 to 0.1 in series [6] (azumolene-treated heart post myopathic insults, FIG. 8A). Also, in series [6] (post myopathic insults, FIG. 8B), the “mean of standard deviation” value was “significantly increased in the control group post myopathic insults compared to the azumolene-treated group”. In addition, the “spatial calcium release dyssynchrony” value in series [6] (vs untreated hearts, FIG. 8A) is listed as “reduce spatial calcium release dyssynchrony”.
